Measured values reported in patent publication US6806230B1, “Pyrimidine derivatives and herbicides containing them” (Kumiai Chemical Industry Co., Ltd., priority 1999, dated 2004).

Key:
Assay type in all cases: in vivo
barnyard grass (Ec) [1] = test: Test Example 2: herbicidal effects by upland soil treatment; design: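 0-5 growth inhibition grade; 5 = over 90%; 4 = 70-90%; 3 = 50-70%; 2 = 30-50%; 1 = 10-30%; 0 = under 10%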; settings: dose 100 g active ingredient per 10 ares, examined on the 21st day after treatment
Outline: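 Pre-emergence test: barnyard grass and green foxtail sown in upland soil, then soil surface sprayed with wettable-powder formulation at 100 g active ingredient per 10 ares (100 l per 10 ares). Grown in greenhouse; herbicidal effect scored on a rating scale 21 days after treatment.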

monochoria (Mo) [2] = test: Test Example 4: selectivity for a crop plant by flooded paddy field treatment; design: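 0-5 growth inhibition grade; 5 = over 90%; 4 = 70-90%; 3 = 50-70%; 2 = 30-50%; 1 = 10-30%; 0 = under 10%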; settings: monochoria, dose 25 gai/10a, 21st day after treatment, index per Table 44
Outline: (§1)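 Flooded paddy pots, 3 cm water; weeds sown from seed, rice transplanted at 2nd-leaf stage. Day after: wettable powder diluted in water, applied dropwise to water surface, 25 g a.i./10 a. Greenhouse; herbicidal effect rated at day 21.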

rice (Or) = test: as above; design: scale not given here; settings: rice transplanted at second leaf stage, dose 25 gai/10a, 21st day after treatment, index per Table 44
Outline: as §1

barnyard grass (Eo) [3] = test: as above; design: scale not given here; settings: barnyard grass, dose 25 gai/10a, 21st day after treatment, index per Table 44
Outline: as §1

monochoria (Mo) [4] = test: Test Example 1: herbicidal effects by flooded paddy field treatment; design: herbicidal effects, Mo (monochoria):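 0-5 growth inhibition grade; 5 = over 90%; 4 = 70-90%; 3 = 50-70%; 2 = 30-50%; 1 = 10-30%; 0 = under 10%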; settings: dose 100 g active ingredient per 10 ares, examined on the 21st day after treatment, standards of Table 44
Outline: (§2)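 Puddled paddy soil in pots, seeds sown, 3 cm flood. Day after sowing: wettable powder diluted in water, applied dropwise to water surface, 100 g a.i./10 ares. Greenhouse; visual herbicidal rating at day 21 post-treatment.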

barnyard grass (Eo) [5] = test: as above; design: herbicidal effects, Eo (barnyard grass):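 0-5 growth inhibition grade; 5 = over 90%; 4 = 70-90%; 3 = 50-70%; 2 = 30-50%; 1 = 10-30%; 0 = under 10%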; settings: dose 100 g active ingredient per 10 ares, examined on the 21st day after treatment, standards of Table 44
Outline: as §2

barnyard grass (Ec) [6] = test: Test Example 3: herbicidal effects by foliage treatment in upland field; design: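 0-5 growth inhibition grade; 5 = over 90%; 4 = 70-90%; 3 = 50-70%; 2 = 30-50%; 1 = 10-30%; 0 = under 10%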; settings: dose 100 g active ingredient per 10 ares, examined on the 14th day after treatment
Outline: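 Barnyard grass and green foxtail were grown in upland soil for 2 weeks in a greenhouse. A water-diluted wettable powder was sprayed over the foliage at 100 l per 10 ares, giving 100 g active ingredient per 10 ares. Herbicidal effect was scored on day 14 after treatment.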

Structure (SMILES): COc1ccccc1C(c1cncnc1C(F)(F)F)N(C)C(=O)Cc1ccc(Cl)cc1 (racemic) [1-490]
- Ec (herbicidal effects, index) (barnyard grass (Ec) [1]): 5
- Mo (herbicidal effect index) (monochoria (Mo) [2]): 5
- Or (herbicidal effect index on crop) (rice (Or)): 0
- Eo (herbicidal effect index) (barnyard grass (Eo) [3]): 5
- herbicidal effects, Mo (monochoria) (monochoria (Mo) [4]): 5
- herbicidal effects, Eo (barnyard grass) (barnyard grass (Eo) [5]): 5
- Ec (herbicidal effects, index) (barnyard grass (Ec) [6]): 4

Structure (SMILES): CCCc1ncncc1C(CCC)N(C)C(=O)Cc1ccccc1 (racemic) [1-492]
- Ec (herbicidal effects, index) (barnyard grass (Ec) [1]): 5
- Mo (herbicidal effect index) (monochoria (Mo) [2]): 5
- Or (herbicidal effect index on crop) (rice (Or)): 0
- Eo (herbicidal effect index) (barnyard grass (Eo) [3]): 5
- herbicidal effects, Mo (monochoria) (monochoria (Mo) [4]): 5
- herbicidal effects, Eo (barnyard grass) (barnyard grass (Eo) [5]): 5
- Ec (herbicidal effects, index) (barnyard grass (Ec) [6]): 5

Structure (SMILES): CCCc1ncncc1C(CCC)N(C)C(=O)Cc1ccc(F)cc1 (racemic) [1-493]
- Ec (herbicidal effects, index) (barnyard grass (Ec) [1]): 5
- Mo (herbicidal effect index) (monochoria (Mo) [2]): 5
- Or (herbicidal effect index on crop) (rice (Or)): 1
- Eo (herbicidal effect index) (barnyard grass (Eo) [3]): 5
- herbicidal effects, Mo (monochoria) (monochoria (Mo) [4]): 5
- herbicidal effects, Eo (barnyard grass) (barnyard grass (Eo) [5]): 5
- Ec (herbicidal effects, index) (barnyard grass (Ec) [6]): 4

Structure (SMILES): CCCc1ncncc1C(CCC)N(C)C(=O)Cc1ccc(Cl)cc1 (racemic) [1-494]
- Ec (herbicidal effects, index) (barnyard grass (Ec) [1]): 5
- Mo (herbicidal effect index) (monochoria (Mo) [2]): 5
- Or (herbicidal effect index on crop) (rice (Or)): 1
- Eo (herbicidal effect index) (barnyard grass (Eo) [3]): 5
- herbicidal effects, Mo (monochoria) (monochoria (Mo) [4]): 5
- herbicidal effects, Eo (barnyard grass) (barnyard grass (Eo) [5]): 5
- Ec (herbicidal effects, index) (barnyard grass (Ec) [6]): 5

Structure (SMILES): CON=Cc1ncncc1C(C(C)C)N(C)C(=O)Cc1ccccc1 (racemic) [1-496]
- Ec (herbicidal effects, index) (barnyard grass (Ec) [1]): 5
- Mo (herbicidal effect index) (monochoria (Mo) [2]): 5
- Or (herbicidal effect index on crop) (rice (Or)): 1
- Eo (herbicidal effect index) (barnyard grass (Eo) [3]): 5
- herbicidal effects, Mo (monochoria) (monochoria (Mo) [4]): 5
- herbicidal effects, Eo (barnyard grass) (barnyard grass (Eo) [5]): 5
- Ec (herbicidal effects, index) (barnyard grass (Ec) [6]): 4

Structure (SMILES): CC(C)C(c1cncnc1C#N)N(C)C(=O)Cc1ccc(F)cc1 (racemic) [1-505]
- Ec (herbicidal effects, index) (barnyard grass (Ec) [1]): 5
- Mo (herbicidal effect index) (monochoria (Mo) [2]): 5
- Or (herbicidal effect index on crop) (rice (Or)): 0
- Eo (herbicidal effect index) (barnyard grass (Eo) [3]): 5
- herbicidal effects, Mo (monochoria) (monochoria (Mo) [4]): 5
- herbicidal effects, Eo (barnyard grass) (barnyard grass (Eo) [5]): 5
- Ec (herbicidal effects, index) (barnyard grass (Ec) [6]): 5

Structure (SMILES): CC(C)C(c1cncnc1C#N)N(C)C(=O)Cc1ccc(Cl)cc1 (racemic) [1-506]
- Ec (herbicidal effects, index) (barnyard grass (Ec) [1]): 5
- Mo (herbicidal effect index) (monochoria (Mo) [2]): 5
- Or (herbicidal effect index on crop) (rice (Or)): 1
- Eo (herbicidal effect index) (barnyard grass (Eo) [3]): 5
- herbicidal effects, Mo (monochoria) (monochoria (Mo) [4]): 5
- herbicidal effects, Eo (barnyard grass) (barnyard grass (Eo) [5]): 5
- Ec (herbicidal effects, index) (barnyard grass (Ec) [6]): 4

Structure (SMILES): Cc1ccc(CC(=O)N(C)C(c2cncnc2C#N)C(C)C)cc1 (racemic) [1-507]
- Ec (herbicidal effects, index) (barnyard grass (Ec) [1]): 5
- Mo (herbicidal effect index) (monochoria (Mo) [2]): 5
- Or (herbicidal effect index on crop) (rice (Or)): 1
- Eo (herbicidal effect index) (barnyard grass (Eo) [3]): 5
- herbicidal effects, Mo (monochoria) (monochoria (Mo) [4]): 5
- herbicidal effects, Eo (barnyard grass) (barnyard grass (Eo) [5]): 5
- Ec (herbicidal effects, index) (barnyard grass (Ec) [6]): 4

Structure (SMILES): COC(C)(OC)c1ncncc1C(C(C)C)N(C)C(=O)Cc1ccc(Cl)cc1 (racemic) [1-517]
- Ec (herbicidal effects, index) (barnyard grass (Ec) [1]): 5
- Mo (herbicidal effect index) (monochoria (Mo) [2]): 5
- Or (herbicidal effect index on crop) (rice (Or)): 1
- Eo (herbicidal effect index) (barnyard grass (Eo) [3]): 5
- herbicidal effects, Mo (monochoria) (monochoria (Mo) [4]): 5
- herbicidal effects, Eo (barnyard grass) (barnyard grass (Eo) [5]): 5
- Ec (herbicidal effects, index) (barnyard grass (Ec) [6]): 4

Structure (SMILES): C=CCN(C(=O)Cc1ccc(F)cc1)C(c1cncnc1C(F)(F)F)C(C)C (racemic) [1-519]
- Ec (herbicidal effects, index) (barnyard grass (Ec) [1]): 5
- Mo (herbicidal effect index) (monochoria (Mo) [2]): 5
- Or (herbicidal effect index on crop) (rice (Or)): 1
- Eo (herbicidal effect index) (barnyard grass (Eo) [3]): 5
- herbicidal effects, Mo (monochoria) (monochoria (Mo) [4]): 5
- herbicidal effects, Eo (barnyard grass) (barnyard grass (Eo) [5]): 5
- Ec (herbicidal effects, index) (barnyard grass (Ec) [6]): 4

Structure (SMILES): CC(=O)c1ncncc1C(C(C)C)N(C)C(=O)Cc1ccc(F)cc1 (racemic) [1-527]
- Ec (herbicidal effects, index) (barnyard grass (Ec) [1]): 5
- Mo (herbicidal effect index) (monochoria (Mo) [2]): 5
- Or (herbicidal effect index on crop) (rice (Or)): 1
- Eo (herbicidal effect index) (barnyard grass (Eo) [3]): 5
- herbicidal effects, Mo (monochoria) (monochoria (Mo) [4]): 5
- herbicidal effects, Eo (barnyard grass) (barnyard grass (Eo) [5]): 5
- Ec (herbicidal effects, index) (barnyard grass (Ec) [6]): 4

Structure (SMILES): CC(=O)c1ncncc1C(C(C)C)N(C)C(=O)Cc1ccc(Cl)cc1 (racemic) [1-528]
- Ec (herbicidal effects, index) (barnyard grass (Ec) [1]): 5
- Mo (herbicidal effect index) (monochoria (Mo) [2]): 5
- Or (herbicidal effect index on crop) (rice (Or)): 1
- Eo (herbicidal effect index) (barnyard grass (Eo) [3]): 5
- herbicidal effects, Mo (monochoria) (monochoria (Mo) [4]): 5
- herbicidal effects, Eo (barnyard grass) (barnyard grass (Eo) [5]): 5
- Ec (herbicidal effects, index) (barnyard grass (Ec) [6]): 4

Structure (SMILES): CC(=O)c1ncncc1C(C(C)C)N(C)C(=O)Cc1ccc(C)cc1 (racemic) [1-529]
- Ec (herbicidal effects, index) (barnyard grass (Ec) [1]): 5
- Mo (herbicidal effect index) (monochoria (Mo) [2]): 5
- Or (herbicidal effect index on crop) (rice (Or)): 1
- Eo (herbicidal effect index) (barnyard grass (Eo) [3]): 5
- herbicidal effects, Mo (monochoria) (monochoria (Mo) [4]): 5
- herbicidal effects, Eo (barnyard grass) (barnyard grass (Eo) [5]): 5
- Ec (herbicidal effects, index) (barnyard grass (Ec) [6]): 5

Structure (SMILES): CCc1ncncc1C(C(C)C)N(C)C(=O)N(C)c1ccc(C)cc1 (racemic) [1-541]
- Ec (herbicidal effects, index) (barnyard grass (Ec) [1]): 5
- Mo (herbicidal effect index) (monochoria (Mo) [2]): 5
- Or (herbicidal effect index on crop) (rice (Or)): 1
- Eo (herbicidal effect index) (barnyard grass (Eo) [3]): 5
- herbicidal effects, Mo (monochoria) (monochoria (Mo) [4]): 5
- herbicidal effects, Eo (barnyard grass) (barnyard grass (Eo) [5]): 5
- Ec (herbicidal effects, index) (barnyard grass (Ec) [6]): 4

Structure (SMILES): CN(C(=O)Cc1ccc(F)cc1)C(c1ccccc1F)c1cncnc1C(F)(F)F (racemic) [1-547]
- Ec (herbicidal effects, index) (barnyard grass (Ec) [1]): 5
- Mo (herbicidal effect index) (monochoria (Mo) [2]): 5
- Or (herbicidal effect index on crop) (rice (Or)): 1
- Eo (herbicidal effect index) (barnyard grass (Eo) [3]): 5
- herbicidal effects, Mo (monochoria) (monochoria (Mo) [4]): 5
- herbicidal effects, Eo (barnyard grass) (barnyard grass (Eo) [5]): 5
- Ec (herbicidal effects, index) (barnyard grass (Ec) [6]): 4

Structure (SMILES): C#CCN(C(=O)Cc1ccccc1)C(c1cncnc1CC)C(C)C (racemic) [1-558]
- Ec (herbicidal effects, index) (barnyard grass (Ec) [1]): 5
- Mo (herbicidal effect index) (monochoria (Mo) [2]): 5
- Or (herbicidal effect index on crop) (rice (Or)): 1
- Eo (herbicidal effect index) (barnyard grass (Eo) [3]): 5
- herbicidal effects, Mo (monochoria) (monochoria (Mo) [4]): 5
- herbicidal effects, Eo (barnyard grass) (barnyard grass (Eo) [5]): 5
- Ec (herbicidal effects, index) (barnyard grass (Ec) [6]): 4

Structure (SMILES): C#CCN(C(=O)Cc1ccc(F)cc1)C(c1cncnc1CC)C(C)C (racemic) [1-559]
- Ec (herbicidal effects, index) (barnyard grass (Ec) [1]): 5
- Mo (herbicidal effect index) (monochoria (Mo) [2]): 5
- Or (herbicidal effect index on crop) (rice (Or)): 1
- Eo (herbicidal effect index) (barnyard grass (Eo) [3]): 5
- herbicidal effects, Mo (monochoria) (monochoria (Mo) [4]): 5
- herbicidal effects, Eo (barnyard grass) (barnyard grass (Eo) [5]): 5
- Ec (herbicidal effects, index) (barnyard grass (Ec) [6]): 4

Structure (SMILES): CCc1ncncc1C(N(C)C(=O)Cc1ccc(Cl)cc1)C(C)(C)C (racemic) [1-566]
- Ec (herbicidal effects, index) (barnyard grass (Ec) [1]): 5
- Mo (herbicidal effect index) (monochoria (Mo) [2]): 5
- Or (herbicidal effect index on crop) (rice (Or)): 1
- Eo (herbicidal effect index) (barnyard grass (Eo) [3]): 5
- herbicidal effects, Mo (monochoria) (monochoria (Mo) [4]): 5
- herbicidal effects, Eo (barnyard grass) (barnyard grass (Eo) [5]): 5
- Ec (herbicidal effects, index) (barnyard grass (Ec) [6]): 4

Structure (SMILES): C#CCN(C(=O)Cc1cccc(F)c1)C(c1cncnc1C(F)(F)F)C(C)C (racemic) [1-569]
- Ec (herbicidal effects, index) (barnyard grass (Ec) [1]): 5
- Mo (herbicidal effect index) (monochoria (Mo) [2]): 5
- Or (herbicidal effect index on crop) (rice (Or)): 1
- Eo (herbicidal effect index) (barnyard grass (Eo) [3]): 5
- herbicidal effects, Mo (monochoria) (monochoria (Mo) [4]): 5
- herbicidal effects, Eo (barnyard grass) (barnyard grass (Eo) [5]): 5
- Ec (herbicidal effects, index) (barnyard grass (Ec) [6]): 5

Structure (SMILES): CCC(c1cncnc1C(C)(C)C)N(C)C(=O)Cc1ccc(Cl)cc1 (racemic) [1-572]
- Ec (herbicidal effects, index) (barnyard grass (Ec) [1]): 5
- Mo (herbicidal effect index) (monochoria (Mo) [2]): 5
- Or (herbicidal effect index on crop) (rice (Or)): 1
- Eo (herbicidal effect index) (barnyard grass (Eo) [3]): 5
- herbicidal effects, Mo (monochoria) (monochoria (Mo) [4]): 5
- herbicidal effects, Eo (barnyard grass) (barnyard grass (Eo) [5]): 5
- Ec (herbicidal effects, index) (barnyard grass (Ec) [6]): 4
